Reference: publication PMC5061733, “SpyB, a Small Heme-Binding Protein, Affects the Composition of the Cell Wall in Streptococcus pyogenes” (Frontiers in Cellular and Infection Microbiology, 2016)
Read-outs that look alike come from different tables or passages of the source.

Columns and labels:
MBP-SpyB = conditions: read-out: Hemin, KD; 2.5 μM (Figure 5D; Methods: 5 μM) heme-free monomer, 20 mM HEPES, 100 mM NaCl, 1 mM DTT, pH 7.5, 20°C
[1] = molecular target: T1, SpyB (synthetic SpyB peptide); experiment: tryptophan fluorescence quenching; type: binding, Streptococcus pyogenes; conditions: 5 μM SpyB, 20 mM HEPES, 100 mM NaCl, 1 mM DTT, pH 7.5, 20°C
T1 construct: chemically synthesized SpyB peptide (GenScript); SpyB is 35 residues; no tag mentioned
Excerpt: tryptophan fluorescence quenching on SpyB (synthetic SpyB peptide)

Compound	Kd (MBP-SpyB) [µM]	Kd ([1]; read-out: Hemin, KD) [µM]	Kd ([1]; read-out: Protoporphyrin IX, KD) [µM]
C=CC1=C(C)C2=Cc3c(C=C)c(C)c4[n]3[Fe]([Cl])[n]3c(c(C)c(CCC(=O)O)c3=CC3=NC(=C4)C(C)=C3CCC(=O)O)=CC1=N2 [hemin]	12	2.6	
C=CC1=C(C)c2cc3[nH]c(cc4nc(cc5[nH]c(cc1n2)c(C)c5CCC(=O)O)C(CCC(=O)O)=C4C)c(C)c3C=C [protoporphyrin IX]			4.9
